Reference: PMC11024795 (GeoHealth, 2024)
pIC50, pKd: −log10 of the molar value. Read-outs that look alike come from different tables or passages of the source.

How the values were obtained:
BV2 cells [1] = assay: CCK-8 cell viability assay; format: cell-based; conditions: CCK-8, 125-1,000 μM, 24 hr; significant concentrations differ per compound
BV2 cells [2] = assay: IC50 of OPPs-induced cytotoxicity in BV2 cells; format: cell-based; conditions: for pIC50: read-out: IC50 values of OPPs in BV2 cells
[3] = molecular target: hNLRP3 LRR recombinant protein (Homo sapiens, UniProt Q96P20); assay: Surface plasmon resonance; format: binding; conditions: for kon: read-out: association constant k a
[4] = system: NLRP3, ASC, Caspase-1, IL-1β, IL-18 mRNA in BV2 cells; assay: RT-qPCR of NLRP3 inflammasome and inflammatory cytokine mRNA; format: cell-based; conditions: for expression of NLRP3, ASC, Caspase-1, IL-1β, IL-18 mRNA vs 0 μM OPPs / ASC mRNA expression, MCC950 intervention vs OPP alone / IL-1β mRNA expression, MCC950 intervention vs OPP alone / NLRP3 mRNA expression, MCC950 pre-treatment vs OPP alone: BV2 cells; for expression of NLRP3, ASC, Caspase-1, IL-1β, IL-18 mRNA vs 0 μM OPPs: 500 μM OPP, P < 0.0001; for ASC mRNA expression, MCC950 intervention vs OPP alone / IL-1β mRNA expression, MCC950 intervention vs OPP alone / NLRP3 mRNA expression, MCC950 pre-treatment vs OPP alone: OPP 500 μM
[5] = system: IL-1β and IL-18 in extracellular medium of BV2 cells; assay: ELISA of IL-1β and IL-18 in culture supernatants; format: cell-based; conditions: P < 0.0001; for expression of IL-1β and IL-18 in the extracellular medium vs 0 μM OPPs: ELISA, BV2 cells, OPP 125, 250, 500 μM, 24 hr
BV2 cells [6] = assay: LDH-based cytotoxicity assay; format: cell-based; conditions: 125-1,000 μM, 24 hr, significant concentrations differ per compound
[7] = SPR, Biacore 8K, CM5 chip, 25°C

Sequence of hNLRP3 LRR recombinant protein (Q96P20 742-991 limits assumed): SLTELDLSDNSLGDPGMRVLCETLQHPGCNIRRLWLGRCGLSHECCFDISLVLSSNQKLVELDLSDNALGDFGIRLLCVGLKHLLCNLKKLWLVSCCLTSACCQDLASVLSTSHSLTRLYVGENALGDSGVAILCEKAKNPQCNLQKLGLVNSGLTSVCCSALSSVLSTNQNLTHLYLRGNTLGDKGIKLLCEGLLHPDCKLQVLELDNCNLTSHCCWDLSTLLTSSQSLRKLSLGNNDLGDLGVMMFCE

SMILES | cell viability of BV2 cells vs 0 μM OPPs (BV2 cells [1]) | pIC50 (BV2 cells [2]; BV2 cells, OPPs 24 hr) | affinity constant K D [3, 7] | Caspase-1 and IL-18 mRNA expressions, MCC950 intervention vs OPP alone [4] | expression of NLRP3, ASC, Caspase-1, IL-1β, IL-18 mRNA vs 0 μM OPPs [4] | ASC mRNA expression, MCC950 intervention vs OPP alone ([4]; MCC950 10 μM) | IL-1β mRNA expression, MCC950 intervention vs OPP alone ([4]; MCC950 10 μM) | NLRP3 mRNA expression, MCC950 pre-treatment vs OPP alone ([4]; MCC950 10 μM) | expression of IL-1β and IL-18 in the extracellular medium vs 0 μM OPPs [5] | cytotoxicity (LDH) in BV2 cells vs 0 μM OPPs (BV2 cells [6]) | association constant k a [3, 7] [M⁻¹ s⁻¹] | dissociation constant k d [3, 7] [s⁻¹] | pIC50 (BV2 cells [2]; Mus musculus, BV-2, 24 h) | pKd [3] | kon [3] [M⁻¹ s⁻¹] | pKd ([3]; read-out: affinity constant K D, SPR, Biacore 8K, CM5 chip, 25°C) | cytotoxicity induced by OPPs in BV2 cells (BV2 cells [2]; MCC950 10 μM intervention, from IC50 shift) | activation of the NLRP3 inflammasome and associated inflammatory cytokine mRNA expression in OPPs-treated BV2 cells ([4]; MCC950 10 μM, OPPs 500 μM) | IL-1β and IL-18 expression in the extracellular medium of OPPs-treated BV2 cells ([5]; MCC950 10 μM vs OPPs treatment (125, 250, 500 μM))
COP(=O)(OC)C(O)C(Cl)(Cl)Cl (stereo not shown) [dipterex] | significantly decreased | 3.39 | No obvious binding | significantly decreased | significantly increased | decreased | decreased | significant decrease | significantly increased | significantly increased |  |  |  |  |  |  |  |  | 
CCOP(=O)(OCC)Oc1ccc([N+](=O)[O-])cc1 [paraoxon] | significantly decreased | 3.26 |  | significantly decreased | significantly increased | decreased | decreased | significant decrease | significantly increased | significantly increased | 14.2 | 0.00461 |  |  |  |  |  |  | 
COP(=O)(OC)OC=C(Cl)Cl [dichlorvos] | significantly decreased |  |  | significantly decreased | significantly increased | decreased | decreased | significant decrease | significantly increased | significantly increased |  | 0.00489 | 3.56 | 2.84 | 3.35 |  |  |  | 
COP(=S)(OC)Oc1ccc(SC)c(C)c1 [fenthion] | significantly decreased |  | No obvious binding | significantly decreased | significantly increased | decreased | decreased | significant decrease | significantly increased | significantly increased |  |  | 2.67 |  |  |  |  |  | 
COP(=O)(OC)OC(Br)C(Cl)(Cl)Br (stereo not shown) [dibrom] |  | 3.23 |  | significantly decreased | significantly increased | decreased | decreased | significant decrease | significantly increased |  | 76.5 | 0.206 |  |  |  | 2.57 |  |  | 
CC(C)(O)c1coc(S(=O)(=O)NC(=O)Nc2c3c(cc4c2CCC4)CCC3)c1 [MCC950, reference compound] |  |  |  |  |  |  |  |  |  |  |  |  |  |  |  |  | markedly decrease | reduced | significantly reduced
CNC(=O)CSP(=S)(OC)OC [dimethoate] | significantly decreased |  |  | significantly decreased | significantly increased | decreased | decreased | significant decrease | significantly increased | significantly increased |  | 0.00529 |  | 4.05 | 58.9 |  |  |  | 
